As usually defined, the melting point is the temperature, or range, at which the solid turns liquid.

The values that follow come from patent US6703420B1, “Amino-thio-acrylonitriles as MEK inhibitors” (Bristol-Myers Squibb Pharma Company, priority 1999, dated 2004).

Data set [1] relates to neutrophils.
Data set [2] has as its system ERK. Conditions: fMLP- and LTB4-stimulated.
The test system of data set [3] is T cell. Conditions: in response to TCR engagement; cited from earlier work.
Data set [4] deals with b2 integrin. Conditions: U0126 at 10 mM.
The test system of data set [5] is Cox-2.
The subject of data set [6] is RAS-transformed cells.
In data set [7] the test system is MMP. Conditions: IL-1b and TNF-a, fibroblasts; cited from earlier work.
Data set [8] has as its system freshly isolated human monocytes and THP-1 cells.
The subject of data set [9] is activated MEK. Conditions: cited from earlier work; for type of inhibition, comparative kinetic analysis: activated MEK.
The subject of data set [10] is SMC. Conditions: serum starved SMC.
Data set [11] concerns ERK. Conditions: PMA/ionomycin, Con A stimulation, antigen with costimulation; cited from earlier work.
For data set [12], the system named is human tumor cell lines.
Data set [13] has as its system keratinocytes. Conditions: keratinocytes stimulated with a variety of agents.
In data set [14] the test system is neutrophils. Conditions: U0126 at 10 mM; in response to IL-8 and LTB4.
The test system of data set [15] is keratinocyte. Conditions: pituitary growth factor extract, primarily FGF.
The subject of data set [16] is RAS-transformed cells. Conditions: cited from earlier work.
The test system of data set [17] is Cox-2. Conditions: RAW 264.7 cells; cited from earlier work.
Data set [18] relates to SMC (Smooth Muscle Cell). Conditions: at concentrations which inhibit ERK activation; cited from earlier work.
For data set [19], the system named is neutrophils. Conditions: in response to all agents (fMLP, IL-8, C5a, LTB4); cited from earlier work.
Data set [20] deals with 5-lipoxygenase. Conditions: HL-60 cells; cited from earlier work.
For data set [21], the system named is HL-60 cells. Conditions: cited from earlier work.
Data set [22] concerns neutrophils. Conditions: cited from earlier work.
In data set [23] the test system is Swiss 3T3 cells. Conditions: PDGF-stimulated Swiss 3T3 cells; cited from earlier work.
The test system of data set [24] is UM-SCC-1 cells. Conditions: cited from earlier work.
For data set [25], the system named is monocytes. Conditions: LPS treatment of monocytes; cited from earlier work.
Data set [26] relates to ERK. Conditions: agonists fMLP, IL-8, C5a and LTB4; cited from earlier work.
The subject of data set [27] is neutrophils, mast cells, or endothelial cells. Conditions: opsonized zymosan, aggregation of high affinity IgG receptor, or thrombin, respectively; cited from earlier work.
The test system of data set [28] is Cox-2. Conditions: LPA-stimulated rat mesangial cells; cited from earlier work.
Data set [29] deals with T cells. Conditions: cited from earlier work.
For data set [30], the system named is UM-SCC-1 and MDA-TV-138. Conditions: controlled by EGF, TGFa and FGF; cited from earlier work.

Molecules are shown by their SMILES. Where two headings read alike, the source gives them in different places.

For `N#CC(=C(N)Sc1ccc(N)cc1)c1cccc(C(O)c2ccncc2)c1` (centres unmarked), the melting point was 146.5 to 147.5 °C.
The same measure, in the same setting: for `Cc1ccccc1C(C(C#N)=C(N)Sc1ccccc1N)c1ccc(Cl)cc1` (centres unmarked) the value was 63.5 to 72 °C.
`N#CC(=C(/N)Sc1ccccc1N)/C(C#N)=C(\N)Sc1ccccc1N` [Example U0126]: in data set [1], the NADPH-oxidase activity result was “does not impair NADPH-oxidase activity” and the bacterial cell killing result is listed as “does not impair”. The “ERK activation in neutrophils” value in [2] is “blocks ERK activation”. Further, in data set [3], the IL-2 synthesis result is reported as “blocked”; the “T cell activation and proliferation” value is given as “blocked”. In addition, the “blunting of up regulation of b2 integrin on the cell surface” value in [4] worked out at 50%. The Cox-2 induction result in [5] (TPA-stimulated fibroblasts) is “inhibits Cox-2 induction”. In addition, in data set [5] (fibroblasts, serum), the “serum induction of the Cox-2 transcript” value was “does not impede serum induction of the Cox-2 transcript”. Also, the “cell growth under normal culture conditions” value in data set [6] (normal culture conditions) is given as “minimal effects on cell growth”. Besides, the “growth of RAS-transformed cells in soft agar” value in data set [6] (soft agar) is reported as “impede the growth”. For the same compound, in [7], the MMP induction entry is reported as “block MMP induction”. Moreover, the LPS-induced cytokine production result in [8] is “inhibitable”. For the same compound, the “type of inhibition, comparative kinetic analysis” value in data set [9] is “non-competitive inhibitors of activated MEK”. The PDGF-dependent growth entry in data set [10] is “prevents PDGF-dependent growth”. Also, the “ERK activation in T cells” value in data set [11] is listed as “prevents ERK activation”. Moreover, the “growth of human tumor cell lines in soft agar” value in [12] was “can prevent cell growth in some cells, but not all”. In [13], the arachidonic acid release result was “block arachidonic acid release”; the “prostaglandin and leukotriene synthesis” value is listed as “block”. The “block of chemotaxis through a fibrin gel” value in data set [14] is over 80%. For the same compound, the keratinocyte proliferation result in data set [15] is given as “blocks keratinocyte proliferation”.
Consider `COc1cccc(-c2cc(=O)c3ccccc3o2)c1N` [PD 098059], for which, in [16] (normal culture conditions), the “cell growth under normal culture conditions” value is given as “minimal effects on cell growth”. In addition, in [16] (soft agar), the “growth of RAS-transformed cells in soft agar” value was “impede the growth”. Also, the “LPS-induced Cox-2 expression” value in [17] is “partially blocked”. In [18], the “PDGF-BB-dependent SMC chemotaxis” value was “prevents PDGF-BB-dependent SMC (Smooth Muscle Cell) chemotaxis”. The neutrophil chemotaxis entry in data set [19] is recorded as “blocks neutrophil chemotaxis”. In addition, in data set [20], the “5-lipoxygenase translocation from cytosol to nuclear membrane and activation (5-HETE production)” value is listed as “inhibited”. Besides, in data set [21], the fMLP-stimulated superoxide generation entry is recorded as “inhibited”. Also, in [9], the “type of inhibition, comparative kinetic analysis” value is “non-competitive inhibitors of activated MEK” and the MEK activity entry is recorded as “inhibits MEK activity”. In addition, the superoxide anion production result in data set [22] is listed as “does not alter superoxide anion production”. Further, the “thymidine incorporation into DNA” value in [23] is “blocks thymidine incorporation into DNA”. In addition, in data set [24], the cellular proliferation rate result was “not affected” and the “in vitro invasiveness through an extracellular matrix-coated porous filter” value is “blocked”. Further, the cytokine production entry in data set [25] was “blocked”. The “ERK activation in neutrophils” value in data set [26] was “blocked”. For the same compound, the arachidonic acid release result in data set [27] was “blocks arachidonic acid release”. The Cox-2 induction entry in data set [28] is listed as “inhibits Cox-2 induction”. The IL-2 production result in [29] (anti-CD3 antibody with anti-CD28 or PMA) is “blocked IL-2 production”. For the same compound, in data set [29] (anti-CD3 antibody, reversed by IL-2), the T cell proliferation entry was “inhibit T cell proliferation”. For the same compound, the “production of IL-4, IL-5 and IL-13” value in [29] (similarly stimulated T cell cultures) is on record as “enhanced production”. Also, in [29] (stimulated T cells), the “TNFa, IL-3 GM-CSF, IFN-g, IL-6 and IL-10 production” value was “blocked”. For the same compound, the urokinase secretion entry in data set [30] was “reduce urokinase secretion”.
